Experimental data reported in ChEMBL document CHEMBL5137024, “Discovery of novel coumarin-indole derivatives as tubulin polymerization inhibitors with potent anti-gastric cancer activities” (Eur J Med Chem, 2022).
The source made the active and inactive calls. No cut-off for these calls is given here.

Experiments:
[1] = tested on: KYSE-450; experiment: Antiproliferative activity against human KYSE-450 cells assessed as reduction in cell viability incubated for 48 hrs by MTT assay; type: functional, cell-based; settings: KYSE-450, 48 h
[2] = tested on: ECa-109 cell line; experiment: Antiproliferative activity against human EC109 cells assessed as reduction in cell viability incubated for 48 hrs by MTT assay; type: functional, cell-based; settings: ECa-109, 48 h
[3] = tested on: MCF7; experiment: Antiproliferative activity against human MCF7 cells assessed as reduction in cell viability incubated for 48 hrs by MTT assay; type: functional, cell-based; settings: MCF7, 48 h
[4] = tested on: HepG2; experiment: Antiproliferative activity against human HepG2 cells assessed as reduction in cell viability incubated for 48 hrs by MTT assay; type: functional, cell-based; settings: HepG2, 48 h
[5] = tested on: MGC-803; experiment: Antiproliferative activity against human MGC-803 cells assessed as reduction in cell viability incubated for 12 to 48 hrs by MTT assay; type: functional, cell-based; settings: dose 15-30 nM, time 12-48 hrs, DDE = dose-dependent effect
[6] = molecular target: Tubulin (Sus scrofa, UniProt P02554+P02550); experiment: Inhibition of porcine brain tubulin polymerization by fluorescence based assay; type: tissue-based
[7] = molecular target: T1, Tubulin (Homo sapiens) (UniProt P68371+Q9H4B7+P0DPH7+P68366+Q13509+Q71U36+P04350+Q3ZCM7+P07437+P68363+Q9BQE3+Q6PEY2+Q13885+Q9BVA1+Q9BUF5); experiment: Disruption of microtubule network in human MGC-803 cells assessed as irregular form of filamentous microtubule structures at 5 to 15 nM measured after 48 hrs by DAPI staining based fluorescence microscopic analysis; type: cell-based; settings: dose 5-15 nM
[8] = molecular target: T1, Tubulin (Homo sapiens); experiment: Disruption of microtubule network in human HGC-27 cells assessed as cytoskeleton disruption at 10 to 30 nM measured after 48 hrs by DAPI staining based fluorescence microscopic analysis; type: cell-based; settings: dose 10-30 nM
[9] = molecular target: Tubulin beta (Homo sapiens) (UniProt P68371+Q9H4B7+Q13509+P04350+Q3ZCM7+P07437+Q13885+Q9BVA1+Q9BUF5+A6NNZ2); experiment: Binding affinity to beta-tubulin colchicine binding site in human HGC-27 cells assessed as decrease in beta-tubulin adduct band incubated for 2 hrs by EBI alkylate competition assay; type: cell-based; settings: dose 0.075-0.75 µM, DDE = dose-dependent effect
[10] = tested on: MGC-803; experiment: Inhibition of ERK signalling pathway in human MGC-803 cells assessed as downregulation of c-Raf phosphorylation at 5 to 15 nM incubated for 48 hrs; type: cell-based; settings: dose 5-15 nM
[11] = tested on: HGC-27; experiment: Inhibition of ERK signalling pathway in human HGC-27 cells assessed as downregulation of MEK1/2 phosphorylation at 10 to 30 nM incubated for 48 hrs; type: cell-based; settings: dose 10-30 nM
[12] = tested on: HGC-27; experiment: Inhibition of ERK signalling pathway in human HGC-27 cells assessed as downregulation of ERK1/2 phosphorylation at 10 to 30 nM incubated for 48 hrs; type: cell-based; settings: dose 10-30 nM
[13] = tested on: HGC-27; experiment: Inhibition of ERK signalling pathway in human HGC-27 cells assessed as reduction in downstream substrate p90RSK phosphorylation at 10 to 30 nM incubated for 48 hrs; type: cell-based; settings: dose 10-30 nM
[14] = tested on: MGC-803; experiment: Inhibition of p38 signalling pathway in human MGC-803 cells assessed as reduction in MKK3/6 phosphorylation at 5 to 15 nM incubated for 48 hrs; type: cell-based; settings: dose 5-15 nM
[15] = tested on: MGC-803; experiment: Inhibition of p38 signalling pathway in human MGC-803 cells assessed as reduction in downstream substrate MAPKAPK2 phosphorylation at 5 to 15 nM incubated for 48 hrs; type: cell-based; settings: dose 5-15 nM
[16] = tested on: MGC-803; experiment: Downregulation of ATF4 expression in human MGC-803 cells incubated for 48 hrs; type: functional, cell-based; settings: dose 5-15 nM, DDE = dose-dependent effect
[17] = tested on: HGC-27; experiment: Downregulation of c-Myc expression in human HGC-27 cells incubated for 48 hrs; type: functional, cell-based; settings: dose 10-30 nM, DDE = dose-dependent effect
[18] = tested on: HGC-27; experiment: Downregulation of phosphorylated Elk-1 expression in human HGC-27 cells incubated for 48 hrs; type: functional, cell-based; settings: dose 10-30 nM, DDE = dose-dependent effect
[19] = tested on: MGC-803; experiment: Induction of apoptosis in human MGC-803 cells assessed as increase in total apoptotic cells at 15 nM incubated for 48 hrs by annexin V FITC and propidium iodide staining based flow cytometry analysis (reference value: 3.4%); type: functional
[20] = Induction of mitochondria mediated intrinsic apoptosis in human HGC-27 cells assessed as late apoptotic cells at 10 nM measured after 48 hrs by flow cytometry analysis (Rvb= 93.6%); type: functional
[21] = Induction of mitochondria mediated intrinsic apoptosis in human HGC-27 cells assessed as early apoptotic cells at 20 nM measured after 48 hrs by flow cytometry analysis (Rvb= 6.4%); type: functional
[22] = Induction of mitochondria mediated intrinsic apoptosis in human HGC-27 cells assessed as late apoptotic cells at 30 nM measured after 48 hrs by flow cytometry analysis (reference value: 93.6%); type: functional
[23] = tested on: HGC-27; experiment: Induction of apoptosis in human HGC-27 cells assessed as decrease in cell density at 10 to 30 nM incubated for 48 hrs by bright field imaging analysis; type: functional, cell-based; settings: dose 10-30 nM
[24] = tested on: HGC-27; experiment: Induction of apoptosis in human HGC-27 cells assessed as nuclear fragmentation at 10 to 30 nM incubated for 48 hrs by DAPI staining based analysis; type: functional, cell-based; settings: dose 10-30 nM
[25] = tested on: MGC-803; experiment: Induction of apoptosis in human MGC-803 cells assessed as increase in dead cells at 5 to 15 nM incubated for 48 hrs by calcein-AM dye/propidium iodide staining based analysis; type: functional, cell-based; settings: dose 5-15 nM
[26] = tested on: HGC-27; experiment: Induction of DNA damage in human HGC-27 cells by comet assay; type: functional, cell-based; settings: dose 10-30 nM, DDE = dose-dependent effect
[27] = tested on: MGC-803; experiment: Induction of apoptosis in human MGC-803 cells assessed as decrease in Bcl-2 level; type: functional, cell-based; settings: dose 5-15 nM, DDE = dose-dependent effect
[28] = tested on: MGC-803; experiment: Induction of apoptosis in human MGC-803 cells assessed as increase in cleavage caspase 7 level; type: functional, cell-based; settings: dose 5-15 nM, DDE = dose-dependent effect
[29] = tested on: HGC-27; experiment: Induction of apoptosis in human HGC-27 cells assessed as increase in cleavage substrate PARP level; type: functional, cell-based; settings: dose 10-30 nM, DDE = dose-dependent effect
[30] = tested on: MGC-803; experiment: Induction of apoptosis in human MGC-803 cells assessed as upregulation of cleavage caspase 8 level; type: functional, cell-based; settings: dose 5-15 nM, DDE = dose-dependent effect
[31] = tested on: MGC-803; experiment: Antiproliferative activity against human MGC-803 cells assessed as inhibition of cell growth at 5 to 15 nM incubated for 60 hrs; type: functional, cell-based; settings: dose 5-15 nM
[32] = tested on: MGC-803; experiment: Inhibition of colony formation in human MGC-803 cells incubated for 7 days by crystal violet staining based analysis; type: functional, cell-based; settings: dose 2-10 nM, time 7.0 day, DDE = dose-dependent effect
[33] = tested on: HGC-27; experiment: Induction of cell cycle arrest in human HGC-27 cells assessed as accumulation of cells at G2/M phase at 15 nM incubated for 48 hrs by propidium iodide staining based flow cytometry analysis (reference value: 11%); type: functional
[34] = tested on: MGC-803; experiment: Antitumor activity against human MGC-803 cells xenografted BALB/c nude mouse assessed as inhibition of tumor volume at 15 to 30 mg/kg, ip administered once daily for 21 days and measured every 2 days; type: functional, organism-based; settings: dose 15-30 mg/kg, time 21.0 day
[35] = Toxicity in BALB/c nude mouse xenografted with human MGC-803 cells assessed as pathological changes in lung at 15 to 30 mg/kg, ip administered once daily for 21 days by Hematoxyin-eosin staining based analysis; type: organism-based; settings: in vivo, 504 h, dose 15-30 mg/kg, time 21 day

With `CN(c1ccc2c(ccn2C)c1)c1cc(=O)oc2ccccc12` the IC50 [1] was 21 nM, the IC50 [2] was 33.8 nM and the IC50 [3] was 435 nM. For the same compound, the IC50 [4] was 45.5 nM, the Activity [5] was “Dde” and the IC50 [6] was 2460 nM. For the same compound, the Activity [7] was “Active”, the Activity [8] was “Active” and the Activity [9] was “Dde”. For the same compound, the inhibition [10] was “Active”, the inhibition [11] was “Active” and the inhibition [12] was “Active”. For the same compound, the inhibition [13] was “Active”, the inhibition [14] was “Active” and the inhibition [15] was “Active”. The Activity [16] was “Dde”, the Activity [17] was “Dde” and the Activity [18] was “Dde”. The Activity [19] was 40.2%, the Activity [20] was 91.6% and the Activity [21] was 21.6%. The Activity [22] was 74.4%, the Activity [23] was “Active” and the Activity [24] was “Active”. The Activity [25] was “Active”, the Activity [26] was “Dde” and the Activity [27] was “Dde”. The Activity [28] was “Dde”, the Activity [29] was “Dde” and the Activity [30] was “Dde”. The inhibition [31] was “Active”, the inhibition [32] was “Dde” and the Activity [33] was 85%. For the same compound, the Activity [34] was “Active” and the Activity [35] was “Non-Toxic”.
